# Experimental data as given in patent publication US9783511B2, “Carbamate benzoxazine propionic acids and acid derivatives for modulation of RORgamma activity and the treatment of disease” (Merck Sharp & Dohme Corp., priority 2013, dated 2017).
# Target: human RORgammaT-Ligand Binding Domain (LBD) (Homo sapiens (Human), UniProt P51449)
# Assay: RORγ-Ligand Binding Domain TR-FRET Assay (co-activator peptide SRC1_2 recruitment)
# Format: biochemical
# Details: HIS-tagged RORγ-LBD 3 nM, biotinylated SRC1 LXXLL peptide 100 nM, incubated overnight at 4° C., 665 nm/615 nm ratio
# Outline: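 E. coli-expressed, Ni2+-purified HIS-tagged human RORγ-LBD at 3 nM final in 50 mM Tris pH 7.0, 50 mM KCl, 1 mM EDTA, 0.1 mM DTT, 100 μg/mL delipidated BSA. TR-FRET read-out of SRC1_2 co-activator peptide recruitment; compounds dispensed acoustically.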
# human RORgammaT-Ligand Binding Domain (LBD), sequence (P51449 269-508): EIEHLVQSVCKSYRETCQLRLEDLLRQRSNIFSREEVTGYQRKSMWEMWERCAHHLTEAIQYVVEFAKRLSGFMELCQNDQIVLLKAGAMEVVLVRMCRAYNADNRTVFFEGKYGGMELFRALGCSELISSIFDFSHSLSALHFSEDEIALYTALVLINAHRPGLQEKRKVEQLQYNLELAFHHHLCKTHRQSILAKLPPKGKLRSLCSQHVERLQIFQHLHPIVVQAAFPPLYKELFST
row,SMILES,IC50
1,"Cc1nn(C(F)F)cc1S(=O)(=O)N1C[C@H](CC(C)(C)C(=O)O)Oc2ccc(NC(=O)OC(C)(C)C(F)(F)F)cc21 [Example 12o, 3-[(2S)-4-{[1-(difluoromethyl)-3-methyl-1H-pyrazol-4-yl]sulfonyl}-6-{[(2,2,2-trifluoro-1,1-dimethylethoxy)carbonyl]ami-no}-3,4-dihydro-2H-1,4-benzoxazin-2-yl]-2,2-dimethylpropanoic acid]",14.9 nM
2,"CC(C)(OC(=O)Nc1ccc2c(c1)N(S(=O)(=O)c1cccc(C3CC3)c1)C[C@H](CC1(C(=O)O)CC1)O2)C(F)(F)F [Example 14B, (S)-1-((4-((3-cyclopropylphenyl)sulfonyl)-6-((((1,1,1-trifluoro-2-methylpropan-2-yl)oxy)carbonyl)amino)-3,4-dihydro-2H-benzo[b][1,4]oxazin-2-yl)methyl)cyclopropanecarboxy-lic acid]",17.5 nM
3,"CC(C)(OC(=O)Nc1ccc2c(c1)N(S(=O)(=O)c1cccc(C3CC3)c1)C[C@@H](CC1(C(=O)O)CC1)O2)C(F)(F)F [Example 14D, (R)-1-((4-((3-cyclopropylphenyl)sulfonyl)-6-((((1,1,1-trifluoro-2-methylpropan-2-yl)oxy)carbonyl)amino)-3,4-dihydro-2H-benzo[b][1,4]oxazin-2-yl)mehtyl)cyclopropanecarboxy-lic acid]",36.7 nM
4,"CC(C)(OC(=O)Nc1ccc2c(c1)N(S(=O)(=O)c1ccc(F)c(C(F)(F)F)c1)C[C@H]([C@H]1C[C@H]1C(=O)O)O2)C(F)(F)F [Example 22A, (1R,2S)-2-((S)-4-((4-fluoro-3-(trifluoromethyl)phenyl)sulfonyl)-6-((((1,1,1-trifluoro-2-methylpropan-2-yl)oxy)carbonyl)amino)-3,4-dihydro-2H-benzo[b][1,4]oxazin-2-yl)cyclopropanecarboxylic acid]",22.4 nM
5,"CC(C)(OC(=O)Nc1ccc2c(c1)N(S(=O)(=O)c1ccc(F)c(C(F)(F)F)c1)C[C@H]([C@@H]1C[C@@H]1C(=O)O)O2)C(F)(F)F [Example 22B, (1S,2R)-2-((S)-4-((4-fluoro-3-(trifluoromethyl)phenyl)sulfonyl)-6-((((1,1,1-trifluoro-2-methylpropan-2-yl)oxy)carbonyl)amino)-3,4-dihydro-2H-benzo[b][1,4]oxazin-2-yl)cyclopropanecarboxylic acid]",13.5 nM
6,"CC(C)(OC(=O)Nc1ccc2c(c1)N(S(=O)(=O)c1ccc(F)c(C(F)(F)F)c1)C[C@H]([C@@H]1C[C@H]1C(=O)O)O2)C(F)(F)F [Example 22C, (1R,2R)-2-((S)-4-((4-fluoro-3-(trifluoromethyl)phenyl)sulfonyl)-6-((((1,1,1-trifluoro-2-methylpropan-2-yl)oxy)carbonyl)amino)-3,4-dihydro-2H-benzo[b][1,4]oxazin-2-yl)cyclopropanecarboxylic acid]",8.71 nM
7,"CC(C)(OC(=O)Nc1ccc2c(c1)N(S(=O)(=O)c1ccc(F)c(C(F)(F)F)c1)C[C@H]([C@H]1C[C@@H]1C(=O)O)O2)C(F)(F)F [Example 22D, (1S,2S)-2-((S)-4-((4-fluoro-3-(trifluoromethyl)phenyl)sulfonyl)-6-((((1,1,1-trifluoro-2-methylpropan-2-yl)oxy)carbonyl)amino)-3,4-dihydro-2H-benzo[b][1,4]oxazin-2-yl)cyclopropanecarboxylic acid]",5.87 nM
8,"COc1cc(S(=O)(=O)N2C[C@H](CCC(=O)O)Oc3ccc(NC(=O)OCC4(C(F)(F)F)CC4)cc32)ccc1F [Example 24A, 3-{(2S)-4-[(4-fluoro-3-methoxyphenyl)sulfonyl]-6-[({[1-(trifluoromethyl)cyclopropyl]methoxy}carbonyl)amino]-3,4-dihydro-2H-1,4-benzoxazin-2-yl}propanoic acid]",17.7 nM
9,"COc1cc(S(=O)(=O)N2C[C@H](CCC(=O)O)Oc3ccc(NC(=O)OC4(C(F)(F)F)CCC4)cc32)ccc1F [Example 24B, 3-{(2S)-4-[(4-fluoro-3-methoxyphenyl)sulfonyl]-6-[({[1-(trifluoromethyl)cyclobutyl]oxy}carbonyl)amino]-3,4-dihydro-2H-1,4-benzoxazin-2-yl}propanoic acid]",12 nM
10,"C[C@@H]1[C@H](CCC(=O)O)Oc2ccc(NC(=O)OC(C)(C)C(F)(F)F)cc2N1S(=O)(=O)c1cccc(C(F)(F)F)c1 [Example 25, 3-((2S,3R)-3-methyl-6-((((1,1,1-trifluoro-2-methylpropan-2-yl)oxy)carbonyl)amino)-4-((3-(trifluoromethyl)phenyl)sulfonyl)-3,4-dihydro-2H-benzo[b][1,4]oxazin-2-yl)propanoic acid]",10.1 nM
11,"COc1cc(S(=O)(=O)N2c3cc(NC(=O)OC(C)(C)C(F)(F)F)ccc3O[C@H](CC(C)(C)C(=O)O)[C@@H]2C)ccc1F [Example 27A, 3-[(2R,3S)-4-[(4-fluoro-3-methoxyphenyl)sulfonyl]-3-methyl-6-{[(2,2,2-trifluoro-1,1-dimethylethoxy)carbonyl]ami-no}-3,4-dihydro-2H-1,4-benzoxazin-2-yl]-2,2-dimethylpropanoic acid]",8200 nM
12,"COc1cc(S(=O)(=O)N2c3cc(NC(=O)OC(C)(C)C(F)(F)F)ccc3O[C@@H](CC(C)(C)C(=O)O)[C@H]2C)ccc1F [Example 27B, 3-[(2S,3R)-4-[(4-fluoro-3-methoxyphenyl)sulfonyl]-3-methyl-6-{[(2,2,2-trifluoro-1,1-dimethylethoxy)carbonyl]ami-no}-3,4-dihydro-2H-1,4-benzoxazin-2-yl]-2,2-dimethylpropanoic acid]",17.5 nM
13,"CC(C)(OC(=O)Nc1cc(F)c2c(c1)N(S(=O)(=O)c1ccc(F)c(C(F)(F)F)c1)C[C@H](CCC(=O)O)O2)C(F)(F)F [Example 28, (S)-3-(8-fluoro-4-((4-fluoro-3-(trifluoromethyl)phenyl)sulfonyl)-6-((((1,1,1-trifluoro-2-methylpropan-2-yl)oxy)carbonyl)amino)-3,4-dihydro-2H-benzo[b][1,4]oxazin-2-yl)propanoic acid]",10.2 nM
14,"Cc1cc(S(=O)(=O)N2C[C@H](CCC(=O)O)Oc3c(F)cc(NC(=O)OC(C)(C)C(F)(F)F)cc32)ccc1F [Example 29A, 3-[(2S)-8-fluoro-4-[(4-fluoro-3-methylphenyl)sulfonyl]-6-{[(2,2,2-trifluoro-1,1-dimethylethoxy)carbonyl]ami-no}-3,4-dihydro-2H-1,4-benzoxazin-2-yl]propanoic acid]",5.71 nM
15,"COc1cc(S(=O)(=O)N2C[C@H](CCC(=O)O)Oc3c(F)cc(NC(=O)OC(C)(C)C(F)(F)F)cc32)ccc1F [Example 29B, 3-[(2S)-8-fluoro-4-[(4-fluoro-3-methoxyphenyl)sulfonyl]-6-{[(2,2,2-trifluoro-1,1-dimethylethoxy)carbonyl]ami-no}-3,4-dihydro-2H-1,4-benzoxazin-2-yl]propanoic acid]",3.9 nM
16,"CCn1cc(S(=O)(=O)N2C[C@H](CCC(=O)O)Oc3c(F)cc(NC(=O)OC(C)(C)C(F)(F)F)cc32)c(Cl)n1 [Example 29C, 3-[(2S)-4-[(3-chloro-1-ethyl-1H-pyrazol-4-yl)sulfonyl]-8-fluoro-6-{[(2,2,2-trifluoro-1,1-dimethylethoxy)carbonyl]ami-no}-3,4-dihydro-2H-1,4-benzoxazin-2-yl]propanoic acid]",9.68 nM
17,"CCOc1nn(CC)cc1S(=O)(=O)N1C[C@H](CCC(=O)O)Oc2c(F)cc(NC(=O)OC(C)(C)C(F)(F)F)cc21 [Example 29D, 3-[(2S)-4-[(3-ethoxy-1-ethyl-1H-pyrazol-4-yl)sulfonyl]-8-fluoro-6-{[(2,2,2-trifluoro-1,1-dimethylethoxy)carbonyl]ami-no}-3,4-dihydro-2H-1,4-benzoxazin-2-yl]propanoic acid]",7.92 nM
18,"CC(C)(OC(=O)Nc1cc(F)c2c(c1)N(S(=O)(=O)c1cccc(C(F)(F)F)c1)C[C@H](CCC(=O)O)O2)C(F)(F)F [Example 29E, 3-[(2S)-8-fluoro-6-{[(2,2,2-trifluoro-1,1-dimethylethoxy)carbonyl]ami-no}-4-{[3-(trifluoromethyl)phenyl]sulfo-nyl}-3,4-dihydro-2H-1,4-benzoxazin-2-yl]propanoic acid]",10.2 nM
19,"CC(C)(OC(=O)Nc1cc(F)c2c(c1)N(S(=O)(=O)c1ccc(F)c(Cl)c1)C[C@H](CCC(=O)O)O2)C(F)(F)F [Example 29F, 3-[(2S)-4-[(3-chloro-4-fluorophenyl)sulfonyl]-8-fluoro-6-{[(2,2,2-trifluoro-1,1-dimethylethoxy)carbonyl]ami-no}-3,4-dihydro-2H-1,4-benzoxazin-2-yl]propanoic acid]",5.7 nM
20,"CC(C)(OC(=O)Nc1cc(F)c2c(c1)N(S(=O)(=O)c1ccnc(C(F)(F)F)c1)C[C@H](CCC(=O)O)O2)C(F)(F)F [Example 29H, 3-[(2S)-8-fluoro-6-{[(2,2,2-trifluoro-1,1-dimethylethoxy)carbonyl]ami-no}-4-{[2-(trifluoromethyl)pyridin-4-yl]sulfonyl}-3,4-dihydro-2H-1,4-benzoxazin-2-yl]propanoic acid]",10.1 nM
21,"CC(C)(OC(=O)Nc1cc(F)c2c(c1)N(S(=O)(=O)c1cncc(C(F)(F)F)c1)C[C@H](CCC(=O)O)O2)C(F)(F)F [Example 29i, 3-[(2S)-8-fluoro-6-{[(2,2,2-trifluoro-1,1-dimethylethoxy)carbonyl]ami-no}-4-{[5-(trifluoromethyl)pyridin-3-yl]sulfonyl}-3,4-dihydro-2H-1,4-benzoxazin-2-yl]propanoic acid]",9.01 nM
